We go through twelve compounds from ChEMBL document CHEMBL1201862, “PubChem BioAssay data set” (2004).

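Results reflect a 48-hour exposure of cells in 96-well plates to compound at five concentrations. Abbreviation: GI50, concentration required for 50% inhibition of growth.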 The source made the active and inactive calls. Cut-off read from the data, not from the text of the source: active = GI50 up to about 1.1 µM and inactive = higher.

Test in all cases: growth of human tumour cells (NCI), 48 h
The test system of assay [1] is HL-60.
In assay [2] the test system is Malme-3M.
For assay [3], the system named is SN12C.
Assay [4] has as its system RPMI-8226.
The subject of assay [5] is UO-31.
In assay [6] the test system is MOLT-4.
The subject of assay [7] is CAKI-1.
The test system of assay [8] is NCI-H226.
The test system of assay [9] is A549.
The test system of assay [10] is NCI-H522.
Assay [11] concerns HCT-15.
The subject of assay [12] is OVCAR-8.
The subject of assay [13] is HT-29.
In assay [14] the test system is CCRF-CEM.
The subject of assay [15] is A498.
Assay [16] has as its system SW-620.
In assay [17] the test system is U-251.

In the case of `Cc1cccc(-n2c(N)c(-c3nc4ccccc4[nH]3)sc2=S)c1`, the GI50 is 26.5 µM (inactive) in assay [1]; 28.8 µM (inactive) in assay [2]; 25.3 µM (inactive) in assay [3]; 20.7 µM (inactive) in [4]; 33 µM (inactive) in [5]; 20.6 µM (inactive) in assay [6]. Also, the GI50 in [7] is 47.4 µM (inactive); in assay [8], 32.7 µM (inactive); in assay [9] it was 28.2 µM (inactive); in [10], 25.6 µM (inactive); in assay [11] it was 20.7 µM; in [12], 28.4 µM (inactive). Besides, the GI50 in assay [13] was 23.1 µM (inactive); in [14] it was 32.2 µM (inactive); in [15], 89.3 µM (inactive); in assay [16] it was 31.4 µM (inactive); in [17] it was 21.8 µM (inactive).

On to `NC(=S)N/N=C(/CCN1CCCC1)CC(C1=C(O)C2=CCCCC2OC1=O)c1ccccc1` (stereo not drawn), for which the GI50 in assay [1], in assay [2], in assay [3], in [4], in assay [5] and in [7] was > 100 µM (inactive) each time. Also, the GI50 in assay [8] is > 100 µM (inactive); in assay [9], > 100 µM (inactive); in assay [10] it was > 100 µM (inactive); in assay [11], over 100 µM; in assay [12], > 100 µM (inactive); in assay [13], > 100 µM (inactive). In addition, the GI50 in [14] was 80 µM (inactive); in [15], > 100 µM (inactive); in [16], 37.8 µM (inactive); in assay [17], > 100 µM (inactive).

For the compound `COc1ccc(NC(=O)/C(=C/c2ccccc2)C(C)=O)cc1`, the GI50 is 3.39 µM (inactive) in [1]; 16.5 µM (inactive) in [2]; 14.4 µM (inactive) in assay [3]; 5.24 µM (inactive) in [4]; 15.4 µM (inactive) in [5]; 11.4 µM (inactive) in assay [6]. Besides, the GI50 was 15.4 µM (inactive) in [7]; 19.2 µM (inactive) in assay [8]; 22.2 µM (inactive) in [9]; 1.73 µM (inactive) in [10]; 13.2 µM in [11]; 18.1 µM (inactive) in [12]. Moreover, the GI50 in assay [13] was 13.3 µM (inactive); in assay [14], 6.12 µM (inactive); in [15], 21.1 µM (inactive); in assay [16] it was 16.2 µM (inactive); in assay [17], 15.2 µM (inactive).

For the compound `CCOC(=O)Cn1c(=O)[nH]c(=O)c2c1ncn2Cc1ccccc1`, the GI50 in [1], in [2], in [3], in assay [4], in assay [5] and in assay [6] was > 100 µM (inactive) in each case. The GI50 in assay [7] is > 100 µM (inactive); in assay [8], > 100 µM (inactive); in assay [9] it was > 100 µM (inactive); in assay [10], > 100 µM (inactive); in assay [11], over 100 µM; in assay [12] it was > 100 µM (inactive). Further, the GI50 in [13], in [14], in assay [15], in assay [16] and in [17] was > 100 µM (inactive) each time.

With `Cc1nc2ccccc2nc1CC(=O)C(=O)Nc1ccc(Cl)cc1Cl`, the GI50 in assay [1], in [2], in assay [3], in assay [4], in assay [5] and in assay [6] was > 100 µM (inactive) in each case. In addition, the GI50 in assay [7] was > 100 µM (inactive); in assay [9] it was > 100 µM (inactive); in [10], 57.4 µM (inactive); in [11], over 100 µM; in [12], > 100 µM (inactive); in [14], > 100 µM (inactive). Besides, the GI50 in assay [15], in assay [16] and in assay [17] was > 100 µM (inactive) throughout.

For the compound `Cc1cc(N(CCC#N)CCC#N)ccc1/C(Sc1ccccc1)=C(\NC(=O)/C=C/c1ccccc1)C(=O)Sc1ccccc1`, the GI50 is 0.628 µM (active) in [1]; 8.28 µM (inactive) in assay [2]; 1.7 µM (inactive) in assay [3]; 0.991 µM (active) in [4]; 0.731 µM (active) in [5]; 0.557 µM (active) in assay [6]. In addition, the GI50 was 2.05 µM (inactive) in assay [7]; 2.56 µM (inactive) in assay [8]; 2.02 µM (inactive) in assay [9]; 0.587 µM (active) in assay [10]; 3.73 µM in assay [11]; 2.94 µM (inactive) in [12]. For the same compound, the GI50 in assay [13] was 2.91 µM (inactive); in [14], 0.271 µM (active); in assay [15], 4.06 µM (inactive); in [16] it was 4.12 µM (inactive); in assay [17] it was 0.82 µM (active).

For `COc1ccc([N+]2=NC(c3ccc([N+](=O)[O-])cc3)=NN(c3ccccc3)C2)cc1`, the GI50 in [1] was 18.6 µM (inactive); in assay [2], > 100 µM (inactive); in [3] it was > 100 µM (inactive); in assay [4] it was 24.7 µM (inactive); in assay [5], 26.9 µM (inactive); in assay [6], 21.6 µM (inactive). Further, the GI50 in assay [8] is 52.4 µM (inactive); in assay [9], 71 µM (inactive); in assay [10] it was 2.69 µM (inactive); in assay [11] it was 24.8 µM; in [12], > 10 µM (inactive); in [13], 34 µM (inactive). Besides, the GI50 in assay [14] was 24.9 µM (inactive); in [15], 41.6 µM (inactive); in assay [16], 68.4 µM (inactive); in assay [17], 37.3 µM (inactive).

As for `O/N=C1/C(=C/c2ccc(OCc3ccccc3)cc2)CCCC1C(NO)c1ccc(OCc2ccccc2)cc1` (stereo not drawn), the GI50 is 5.57 µM (inactive) in assay [1]; 46.5 µM (inactive) in assay [2]; 3.31 µM (inactive) in assay [3]; 14.6 µM (inactive) in [5]; 5.6 µM (inactive) in assay [6]; 5.87 µM (inactive) in [7]. The GI50 in assay [8] was > 100 µM (inactive); in assay [9], > 100 µM (inactive); in [10], 6.27 µM (inactive); in assay [11], 6.24 µM; in [12] it was 26.7 µM (inactive); in assay [13], 5.24 µM (inactive). Moreover, the GI50 in assay [14] was 11.1 µM (inactive); in assay [15] it was > 100 µM (inactive); in assay [16] it was 17.4 µM (inactive); in [17], 10.5 µM (inactive).

For `Cc1nc(N)nc(N)c1CCCCc1ccccc1`, the GI50 in assay [1] is 4.55 µM (inactive); in assay [2] it was 13.3 µM (inactive); in assay [3], 22.6 µM (inactive); in assay [4], 20.8 µM (inactive); in [5] it was 19.4 µM (inactive); in assay [6], 5.3 µM (inactive). Moreover, the GI50 is 23.4 µM (inactive) in [7]; 3.67 µM (inactive) in [9]; 10.2 µM (inactive) in [10]; 5.97 µM in assay [11]; 8.2 µM (inactive) in assay [12]; 2.47 µM (inactive) in [13]. Also, the GI50 is 3.72 µM (inactive) in assay [14], 18.2 µM (inactive) in [15], 13.7 µM (inactive) in assay [16] and 11.2 µM (inactive) in assay [17].

Turning to `COC(=O)C(=NNc1ccccc1[N+](=O)[O-])C(=O)OC`, the GI50 in assay [1], in [2], in [3], in assay [6], in assay [7] and in assay [8] was > 100 µM (inactive) in each case. Moreover, the GI50 in assay [9], in [10], in assay [12], in [13], in [14] and in assay [15] was > 100 µM (inactive) each time. The GI50 in assay [16] and in assay [17] was > 100 µM (inactive) each time.

In the case of `C[N+]1(C)C[C@@H](O)C[C@@H]1C(=O)[O-]` [BETONICINE], the GI50 in assay [1], in assay [2], in assay [3], in assay [4], in [5] and in assay [6] was > 100 µM (inactive) each time. Also, the GI50 in [8] is > 100 µM (inactive); in assay [9] it was > 100 µM (inactive); in assay [10], > 100 µM (inactive); in [11] it was over 100 µM; in assay [12], > 100 µM (inactive); in assay [13], > 100 µM (inactive). The GI50 in assay [14], in assay [15], in [16] and in assay [17] was > 100 µM (inactive) in each case.

Consider `CC1OC(OC2C(CO)OC(O[C@H]3CC[C@@]4(C)C(=CC[C@H]5[C@@H]6C[C@@H]7O[C@]8(CC[C@@H](C)CN8)[C@@H](C)[C@@H]7[C@@]6(C)CC[C@@H]54)C3)C(O)C2O)C(O)C(O)C1O` (stereo partly drawn), for which the GI50 in assay [1], in assay [2], in assay [3], in assay [4], in assay [5] and in [6] was > 100 µM (inactive) in each case. In addition, the GI50 is > 100 µM (inactive) in assay [7]; > 100 µM (inactive) in [9]; 70.6 µM (inactive) in [10]; over 100 µM in assay [11]; > 100 µM (inactive) in assay [12]; > 100 µM (inactive) in [13]. The GI50 in [14], in assay [15], in assay [16] and in assay [17] was > 100 µM (inactive) each time.
